Key:
[1] = molecular target: T1, degron-G-PRO1-V (Saccharomyces cerevisiae, UniProt P0CY08); assay: HIS3 reporter growth assay, strain PJ69-4a; assay type: cell-based, yeast; details: HIS3 reporter strain PJ69-4a
T1 construct: expressed in transfected cells; host or cells: S. cerevisiae strain PJ69-4a transformed with a p16C (p416CYC) plasmid

[2] = test system: yeast; assay: Progesterone toxicity to yeast cells
[3] = test system: plant cells; assay: Progesterone toxicity to plant cells (protoplasts)
[4] = test system: plant biosensor (G-DIG1-V-Matα2); assay: Induction of the plant biosensor by steroids; assay type: in vivo, Arabidopsis thaliana; details: transgenic Arabidopsis
[5] = Progesterone biosensor luciferase assay in plant protoplasts; assay type: cell-based; details: 25 μM progesterone, L77F mutation in the Gal4 DBD
[6] = PRO0 binding of progesterone
[7] = cited from earlier work
[8] = cited from earlier work; remark: listed apart in the source

## CC(=O)[C@H]1CC[C@H]2[C@@H]3CCC4=CC(=O)CC[C@]4(C)[C@H]3CC[C@]12C [Progesterone, progesterone]
[1]
  stimulation of growth of degron-G-PRO1-V: stimulated
[2]
  level at which toxic, leading to substantial cell death: ≥ 100 µM
[3]
  concentration that seems to be toxic to the plant cells: 250 µM

## C[C@H]1O[C@@H](O[C@H]2[C@@H](O)C[C@H](O[C@H]3[C@@H](O)C[C@H](O[C@H]4CC[C@@]5(C)[C@H](CC[C@@H]6[C@@H]5C[C@@H](O)[C@]5(C)[C@@H](C7=CC(=O)OC7)CC[C@]65O)C4)O[C@@H]3C)O[C@@H]2C)C[C@H](O)[C@@H]1O [digoxin]
[4]
  induction of the plant biosensor: capable of inducing

B1: PRO2: progesterone binding sensor protein, SEQ ID NO:17, tested as TF-biosensor in plant protoplasts (protein)
chain: MNAKEIVVHSLRLLENGDARGWSDLFHPEGVLEFPYAPPGHKTRFEGRETIWAHMRLFPEYVTVRFTDVQFYETADPDLAIGEFHGDGVLTASGGMLAFDFIAVWRTRDGQILQYRVFYNPLRELEALGGVEAAAKIVQGAGSLE
[5]
  increase in luciferase expression over background levels: ~3 fold

B2: PRO0: progesterone binder from three rationally designed binding site mutations in DIG0; SEQ ID NO:13 (protein)
chain: MNAKEIVVHSLRLLENGDARGWSDLFHPEGVLEFPYAPPGHKTRFEGRETIWAHMRLFPEYVTVRFTDVQFYETADPDLAIGEFHGDGVLTASGGKLAFDFIAVWRTRDGQILLYRVFFNPLRVLEALGGVEAAAKIVQGAGSLE
[6]
  affinity for progesterone: nanomolar

B3: DIG10.3 (protein)
chain: MNAKEIVVHSLRLLENGDARGWSDLFHPEGVLEYPYAPPGHKTRFEGRETIWAHMRLFPEYVTVRFTDVQFYETADPDLAIGEFHGDGVLTASGGKLAYDYIAVWRTRDGQILLYRVFFNPLRVLEALGGVEAAAKIVQGAGSLE
[7]
  affinity for digoxin: picomolar
[8]
  affinity for digoxigenin: picomolar
